# Data: PMC10376326, “Novel Acylselenourea Derivatives: Dual Molecules with Anticancer and Radical Scavenging Activity” (Antioxidants, 2023)
# What was measured:
# [1] = tested on: non-malignant BEAS-2B lung cell line; experiment: MTT cell viability assay, BEAS-2B; assay type: cell-based; details: Homo sapiens, normal lung, 48 h
# Experimental: (§1) Cell lines were purchased from the American Type Culture Collection (ATCC). Cell lines MDA-MB-231, HTB-54, DU-145, and BEAS-2B were cultured in RPMI 1640 medium (Gibco, Thermo Fisher Scientific, Gaithersburg, MD, USA) supplemented with 10% fetal bovine serum (FBS; Gibco), 100 units/mL penicillin, and […] streptomycin (Gibco). HT-29 cell line was grown in McCoy’s 5A (Gibco), 10% FBS, 100 units/mL penicillin, and 100 μg/mL streptomycin. Cells were maintained at 37 °C and 5% CO2. The culture medium was changed every three days.
# (§2) The cell viability of each compound was measured by MTT colorimetric assay. Each compound was dissolved in DMSO at a concentration of 0.01 M. Each compound was tested at two different concentrations (10 and 50 µM) in MDA-MB-231 (breast), HTB-54 (lung), DU-145 (prostate), and HT-29 (colon) human cancer cell lines. Serial dilutions were prepared with supplemented culture medium. […] IC50 and selectivity indexes (SI) were determined.
# (§3) Briefly, 1 × 10^4 tumor cells per well were grown in 96-well plates for 24 h. Then, these cells were incubated for 48 h with either DMSO (control) or a different concentration of each of the tested compounds. The cell viability was determined by adding 20 μL of MTT two hours and a half before the termination point. After this time, the culture medium was removed. The resulting formazan crystals were dissolved in 50 μL of DMSO, and the absorbance was measured at 570 nm. Results are expressed as % cell growth. The data were obtained from at least three independent experiments performed in quadruplicate.
# [2] = tested on: HT-29 (colon) cancer cell line; experiment: MTT cell viability assay, HT-29; assay type: cell-based; details: Homo sapiens, HT-29, 48 h, read-out: Cell growth %; for activity at 10 µM: HT-29, 10 µM; for activity at 50 µM: HT-29, 50 µM
# Experimental: as §1, §2, §3
# [3] = DPPH radical scavenging assay; assay type: biochemical; details: for DPPH Inhibitory%: acylselenourea analogs
# Experimental: Different methods are available to quantify the antioxidant capacity of natural or novel molecules. Notable among these are the ABTS^•+ and DPPH^• methods, which measure the quenching efficiency in vitro for known concentrations of preformed radicals. In this work, the DPPH^• colorimetric assay was carried out. Measurements were recorded on a BioTeck PowerWave XS spectrophotometer (BioTeck Instruments, Winooski, VT, USA) and data were collected using KCJunior v.1.41. software (BioTeck Instruments, Winooski, VT, USA). Compounds with potent activity were selected to further determine their protective effect against ROS-induced cell death caused by H2O2.
# DPPH colorimetric assay was performed to determine the in vitro radical scavenging activity of the acylselenourea derivatives. DPPH assay was performed as described by Svinyarov. For each acylselenourea, a stock solution of 1 mg/mL in dimethyl sulfoxide (DMSO) was made, and these solutions were used to prepare the different concentrations employed in the assay. The compounds were tested at two different concentrations (0.003 and 0.03 mg/mL). Intermediate solutions were prepared in methanol and a volume of 100 µL of each was added to each well of the plate. Then, 100 µL of DPPH^• (previously prepared at a concentration of 0.04 mg/mL in methanol and preserved in the dark) was added to the previous methanolic acylselenourea solutions. The discoloration of the purple radical to the yellow reduced form was followed at 517 nm at different time points (0, 5, 15, 30, 60, 90, and 120 min). Ascorbic acid and trolox were used as positive controls. All measurements were carried out in triplicate. Results are expressed as the percentage of the radicals scavenged, calculated using the following formula: (1) % DPPH radical scavenging=Acontrol - Asample/Acontrol × 100 where Acontrol refers to the absorbance of the negative control and Asample refers to the absorbance of the tested compounds. Results are expressed as percentage of DPPH radical scavenging ± SD.
# [4] = tested on: DU-145 (prostate) cancer cell line; experiment: MTT cell viability assay, DU-145; assay type: cell-based, human; details: Homo sapiens, DU-145, 48 h; for activity at 10 µM: read-out: Cell growth %, DU-145, 10 µM, 48 h, MTT; for activity at 50 µM: read-out: Cell growth %, DU-145, 50 µM, 48 h, MTT
# Experimental: as §1, §2, §3
# [5] = tested on: HTB-54 (lung) cancer cell line; experiment: MTT cell viability assay, HTB-54; assay type: cell-based, human; details: for activity at 10 µM / activity at 50 µM / IC50: Homo sapiens, HTB-54, 48 h; for activity at 10 µM: read-out: Cell growth %, HTB-54, 10 µM, 48 h, MTT; for activity at 50 µM: read-out: Cell growth %, HTB-54, 50 µM, 48 h, MTT; for IC50: read-out: IC50 HTB-54, Lung, MTT, 48 h; for SI: IC50 (BEAS-2B)/IC50 (HTB-54)
# Experimental: as §1, §2, §3
# [6] = tested on: MDA-MB-231 (breast) cancer cell line; experiment: MTT cell viability assay, MDA-MB-231; assay type: cell-based, human; details: Homo sapiens, MDA-MB-231, 48 h; for activity at 10 µM: read-out: Cell growth %, MDA-MB-231, 10 µM, 48 h, MTT; for activity at 50 µM: read-out: Cell growth %, MDA-MB-231, 50 µM, 48 h, MTT
# Experimental: as §1, §2, §3
# DU-145 cells = experiment: Protective effects against H2O2-induced oxidative stress in DU-145 cells (MTT); assay type: cell-based, human; details: increase-fold of cell survival
# Experimental: Cells were treated with the selected compounds and then oxidative damage to DU-145 cells was induced using different concentrations of H2O2 (200, 250 and 300 µM), and cell viability was assessed by the MTT method. Briefly, 2.5 × 10^4 DU-145 cells per well were added in 96-well plates. After 24 h of incubation, DMSO, 1.I, 2.I, 5.I, 7.II, 10.II, and ascorbic acid were added to each well at two different concentrations (0.0015 mg/mL and 0.0003 mg/mL) and incubated for 1 h. After that, H2O2 was added at the concentrations of 200, 250, and 300 µM, and the cells were incubated for 12 h to induce cell damage. MTT assay was used to measure cell viability. For each treatment, the mean cell viability was calculated from three independent experiments. The DMSO-treated controls were assigned with a cell viability value of 100% (Vcontrol). The results are expressed as a cell growth inhibition % caused by H2O2 and the increased fold of cell survival, as follows: • Cells without compounds, only treated with H2O2: (2) % Cell growth inhibition=Acontrol - Asample/Acontrol × 100
# • Cells treated with compounds and H2O2:
# (3) % Cell growth inhibition=Asample (compound) - Asample (compound+H2O2)/Acontrol × 100
# (4) Increase-fold of cell survival=% cell growth inhibition (H2O2)/% cell growth inhibition (compound+ H2O2)
# The standard error of the mean (SEM) was calculated in at least three independent experiments performed in quadruplicates.
# [7] = tested on: MDA-MB-231, HT-29, HTB-54 and DU-145 cancer cell lines; experiment: MTT cell viability assay, statements over the panel of cancer cell lines; assay type: cell-based, human; details: for cell growth: in at least three of the four cancer cell lines tested
# Experimental: as §1, §2, §3
# [8] = compound 0.0003 mg/mL, 200 µM H2O2, DU-145
# [9] = compound 0.0003 mg/mL, 250 µM H2O2, DU-145
# [10] = compound 0.0003 mg/mL, 300 µM H2O2, DU-145
# [11] = compound 0.0015 mg/mL, 200 µM H2O2, DU-145
# [12] = compound 0.0015 mg/mL, 250 µM H2O2, DU-145
# [13] = compound 0.0015 mg/mL, 300 µM H2O2, DU-145
Compound,activity at 10 µM [2],activity at 50 µM [2],"inhibition ([3]; 0.003 mg/mL, 0 min)","inhibition ([3]; 0.003 mg/mL, 5 min)","inhibition ([3]; 0.003 mg/mL, 15 min)","inhibition ([3]; 0.003 mg/mL, 30 min)","inhibition ([3]; 0.003 mg/mL, 60 min)","inhibition ([3]; 0.003 mg/mL, 90 min)","inhibition ([3]; 0.003 mg/mL, 120 min)","inhibition ([3]; 0.03 mg/mL, 0 min)","inhibition ([3]; 0.03 mg/mL, 5 min)","inhibition ([3]; 0.03 mg/mL, 15 min)","inhibition ([3]; 0.03 mg/mL, 30 min)","inhibition ([3]; 0.03 mg/mL, 60 min)","inhibition ([3]; 0.03 mg/mL, 120 min)",activity at 10 µM [4],activity at 50 µM [4],activity at 10 µM [5],activity at 50 µM [5],activity at 10 µM [6],further results
"C#CCNC(=[Se])NC(=O)c1cccs1 [Compound 2.III, N-(prop-2-in-1-ylcarbamoselenoyl)thiophene-2-carboxamide]",43.4 ± 4.2%,20.6 ± 4%,2.4 ± 0.6%,4.3 ± 0.4%,5.4 ± 0.3%,6.5 ± 0.5%,7.1 ± 0.5%,7.3 ± 0.6%,7.3 ± 0.6%,14.5 ± 2.3%,12.8 ± 3%,19.8 ± 2.8%,24.8 ± 2.6%,30.2 ± 2.9%,34.4 ± 2.9%,12.8 ± 2.8%,14.3 ± 6.7%,76.8 ± 6.8%,44.7 ± 3.5%,27.4 ± 5.4%,"IC50 [1]: 26.6 ± 4 µM; DPPH Inhibitory% ([3]; 0.03 mg/mL, 90 min): 33.0 ± 3.1%; IC50 [5]: 11.6 ± 1.6 µM; SI [5]: 2.3; activity at 50 µM [6]: 9.48 ± 7.8%"
"CCCNC(=[Se])NC(=O)c1cccs1 [Compound 2.I, N-(propylcarbamoselenoyl)thiophene-2-carboxamide]",48.4 ± 13.8%,32.7 ± 6.9%,0%,4.9 ± 3.6%,8.2 ± 3.3%,11.4 ± 2.7%,16 ± 3.4%,17 ± 2.2%,17.8 ± 2.2%,2.5 ± 0.6%,12.8 ± 1.8%,36.2 ± 0.1%,59 ± 3%,90.7 ± 5.7%,95.5 ± 0.3%,54.5 ± 8.4%,50.2 ± 2%,92.3 ± 6.2%,71.8 ± 4.4%,32.8 ± 7.2%,"Increase-fold (DU-145 cells; [8]): 0.8 ± 0.2; Increase-fold (DU-145 cells; [9]): 0.9 ± 0.2; Increase-fold (DU-145 cells; [10]): 1.0 ± 0.3; Increase-fold (DU-145 cells; [11]): 2.9 ± 1.5; Increase-fold (DU-145 cells; [12]): 3.1 ± 1.3; Increase-fold (DU-145 cells; [13]): 2.9 ± 1.2; cell growth [7]: below 55%; IC50 [1]: 5.3 ± 0.6 µM; time to reach the highest DPPH inhibition ([3]; 0.03 mg/mL): 60 min; inhibition ([3]; 0.03 mg/mL, 90 min): 95.5 ± 0.2%; IC50 [5]: 8.6 ± 1.1 µM; SI [5]: 0.6; activity at 50 µM [6]: 15.2 ± 8.8%"
"C=CCNC(=[Se])NC(=O)c1cccc(C(=O)NC(=[Se])NCC=C)c1 [Compound 10.II, N^1,N^3-bis(allylcarbamoselenoyl)isophthalamide]",47.8 ± 8.7%,46.4 ± 4.8%,0.9 ± 1.8%,6.7 ± 1.7%,11.5 ± 1.5%,14.7 ± 1.2%,17.7 ± 1.1%,19 ± 0.9%,19.7 ± 0.9%,31.6 ± 4.1%,69.1 ± 0.1%,86.3 ± 0.9%,94.4 ± 0.7%,96.1 ± 0.1%,96 ± 0.3%,18.1 ± 2.7%,18.8 ± 3.1%,52.6 ± 10.5%,43.5 ± 17.6%,24.8 ± 6.1%,"Increase-fold (DU-145 cells; [8]): 0.8 ± 0.4; Increase-fold (DU-145 cells; [9]): 1.0 ± 0.3; Increase-fold (DU-145 cells; [10]): 1.0 ± 0.2; Increase-fold (DU-145 cells; [11]): 1.0 ± 0.6; Increase-fold (DU-145 cells; [12]): 1.1 ± 0.2; Increase-fold (DU-145 cells; [13]): 1.1 ± 0.2; cell growth [7]: below 55%; IC50 [1]: 29.9 ± 5 µM; time to reach the highest DPPH inhibition ([3]; 0.03 mg/mL): 60 min; inhibition ([3]; 0.03 mg/mL, 90 min): 96 ± 0.2%; SI [5]: 0.7; activity at 50 µM [6]: 21 ± 9.4%"
"C=CCNC(=[Se])NC(=O)c1ccco1 [Compound 1.II, N-(allylcarbamoselenoyl)furan-2-carboxamide]",95 ± 15.7%,16.6 ± 5.3%,1.7 ± 0.3%,5.4 ± 0.5%,8.8 ± 0.9%,12.1 ± 1.2%,16.5 ± 1.5%,19.5 ± 1.7%,21.1 ± 1.4%,16 ± 1.9%,45.2 ± 5.1%,65.4 ± 4.1%,85.4 ± 4.9%,96.5 ± 0.6%,96.5 ± 0.5%,81.5 ± 13.5%,10.6 ± 5.7%,54.9 ± 11.2%,11.1 ± 5.2%,80.4 ± 8.4%,"cell growth % ([7]; 10 µM, over the four cancer cell lines): 54.8–95.0%; time to reach the highest DPPH inhibition ([3]; 0.03 mg/mL): 60 min; DPPH Inhibitory% ([3]; 0.03 mg/mL, 90 min): 96.6 ± 0.6%; activity at 50 µM [6]: 14.5 ± 7.9%"
"C#CCNC(=[Se])NC(=O)c1ccc2c(c1)OCO2 [Compound 8.III, N-(prop-2-in-1-ylcarbamoselenoyl)benzo[d][1,3]dioxole-5-carboxamide]",40.3 ± 8.3%,18.1 ± 5.3%,1.1 ± 2.3%,2.4 ± 2.2%,4.4 ± 2%,6.2 ± 1.9%,8.3 ± 1.8%,9.2 ± 1.8%,9.7 ± 1.8%,6.4 ± 2.5%,17.9 ± 0.9%,32.8 ± 0.9%,45.2 ± 2%,59.7 ± 3.8%,72.5 ± 8.1%,63 ± 4.8%,12.3 ± 7.8%,34.5 ± 9.1%,31.6 ± 6.1%,61.9 ± 13.5%,"IC50 [1]: > 100 µM; DPPH Inhibitory% ([3]; 0.03 mg/mL, 90 min): 62.4 ± 3.1%; IC50 [5]: 21.7 ± 4.1 µM; SI [5]: >4.6; activity at 50 µM [6]: 19.1 ± 9.6%"
